In US6610665B1 (Smithkline Beecham Corporation, priority 1998, dated 2003):
Structures can show the parent of a compound that is named as a salt.

Experiments:
Type in all cases: cell-based
Settings in all cases: ratio to NECA
[1] = target: T1, adenosine 3 receptor (Homo sapiens, UniProt P0DMS8); test: Agonist activity, CHO cells transfected with human adenosine receptor and CRE-SPAP reporter; forskolin-enhanced cAMP (A3)
T1 construct: expressed in transfected cells; host or cells: CHO cells
T1 sequence (P0DMS8 1-318): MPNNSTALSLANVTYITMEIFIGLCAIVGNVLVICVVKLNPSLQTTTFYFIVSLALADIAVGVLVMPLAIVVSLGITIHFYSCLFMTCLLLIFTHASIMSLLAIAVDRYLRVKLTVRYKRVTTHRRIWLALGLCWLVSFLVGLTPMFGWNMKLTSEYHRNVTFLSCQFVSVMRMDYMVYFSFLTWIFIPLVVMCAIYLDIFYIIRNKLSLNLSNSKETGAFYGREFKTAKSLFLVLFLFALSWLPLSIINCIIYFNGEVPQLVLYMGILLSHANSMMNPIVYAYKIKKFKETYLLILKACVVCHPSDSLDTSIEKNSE
Protocol: (§1) (1) Agonist activity against adenosine 2a, adenosine 1 and adenosine 3 receptor subtypes.
(§2) Agonist selectivity of compounds against other human adenosine receptors is determined using Chinese hamster ovary (CHO) cells transfected with the gene for the relevant human adenosine receptor following a method based on that of Castanon and Spevak, 1994. The CHO cells are also transfected with cyclic AMP response elements promoting the gene for secreted placental alkaline phosphatase (SPAP) (Wood, 1995). The effect of test compounds may be determined by their effects on basal levels of CAMP (A2a) or on forskolin-enhanced cAMP (A1 and A3) as reflected by changes in levels of SPAP. EC50 values for compounds may then be determined as a ratio to that of the non-selective agonist N-ethyl carboxamide adenosine (NECA).

[2] = target: T2, adenosine 1 receptor (Homo sapiens, UniProt P30542); test: Agonist activity, CHO cells transfected with human adenosine receptor and CRE-SPAP reporter; forskolin-enhanced cAMP (A1)
T2 construct: expressed in transfected cells; host or cells: CHO cells
T2 sequence (P30542 1-326): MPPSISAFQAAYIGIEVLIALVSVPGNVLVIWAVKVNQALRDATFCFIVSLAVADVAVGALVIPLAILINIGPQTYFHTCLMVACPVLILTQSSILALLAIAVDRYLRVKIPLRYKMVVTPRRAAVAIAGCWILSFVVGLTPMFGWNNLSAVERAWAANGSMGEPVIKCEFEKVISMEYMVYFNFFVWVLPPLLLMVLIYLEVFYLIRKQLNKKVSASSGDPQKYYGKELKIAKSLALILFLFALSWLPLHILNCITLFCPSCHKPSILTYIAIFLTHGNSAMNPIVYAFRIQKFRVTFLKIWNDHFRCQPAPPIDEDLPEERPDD
Protocol: as §1, §2

[3] = target: T3, adenosine 2a receptor (Homo sapiens, UniProt P29274); test: Agonist activity, CHO cells transfected with human adenosine receptor and CRE-SPAP reporter; basal cAMP (A2a)
T3 construct: expressed in transfected cells; host or cells: CHO cells
Protocol: as §1, §2

[4] = * data are minimum values since preparation was found, after testing, to contain an inactive impurity

T3 sequence (P29274 whole entry): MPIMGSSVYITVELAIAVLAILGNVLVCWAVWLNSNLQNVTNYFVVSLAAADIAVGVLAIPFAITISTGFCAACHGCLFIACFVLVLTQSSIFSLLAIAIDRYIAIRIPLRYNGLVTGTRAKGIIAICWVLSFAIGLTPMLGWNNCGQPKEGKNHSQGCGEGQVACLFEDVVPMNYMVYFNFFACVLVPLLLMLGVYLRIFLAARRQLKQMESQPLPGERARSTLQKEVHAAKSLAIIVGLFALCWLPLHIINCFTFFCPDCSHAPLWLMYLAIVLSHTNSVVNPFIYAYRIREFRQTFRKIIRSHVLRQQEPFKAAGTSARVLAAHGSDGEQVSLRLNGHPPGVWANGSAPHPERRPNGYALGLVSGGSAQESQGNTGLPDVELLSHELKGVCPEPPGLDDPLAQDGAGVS

Row | Compound | A3, EC50 as a ratio of that of NECA [1, 4] | A1, EC50 as a ratio of that of NECA [2, 4] | A2a, EC50 as a ratio of that of NECA [3, 4] | A3, EC50 as a ratio of that of NECA ([1]; CHO cells, SPAP readout) | A1, EC50 as a ratio of that of NECA ([2]; CHO cells, SPAP readout) | A2a, EC50 as a ratio of that of NECA ([3]; CHO cells, SPAP readout)
1 | CCc1noc(C2OC(n3cnc4c(NC(CC)CC)nc(NC5CCNC5)nc43)C(O)C2O)n1 [Example 27, (2S,3S,4R,5R)-2-(3-Ethyl-[1,2,4]oxadiazol-5-yl)-5-[6-(1-ethyl-propylamino)-2-(pyrrolidin-3R-ylamino)-purin-9-yl]-tetrahydro-furan-3,4-diol formate] | >284 | 263.14 | 10.5 |  |  | 
2 | CCC(CC)Nc1nc(NC2CCCC2)nc2c1ncn2[C@@H]1O[C@H](c2nc(C)no2)[C@@H](O)[C@H]1O.O=CO [Example 22] |  |  |  | >193 | 78.28 | 22.25
3 | CCc1noc([C@H]2O[C@@H](n3cnc4c(NCC(c5ccccc5)c5ccccc5)nc(NC5CC6CCC5C6)nc43)[C@H](O)[C@@H]2O)n1.O=CO (stereo partly drawn) [Example 41, (2R,3R,4S,5S)-2-{2-(Bicyclo[2.2.1]hept-2-ylamino)-6-(2,2-diphenyl-ethylamino)-purin-9-yl}-5-(3-ethyl-[1,2,4]oxadiazol-5-yl)-tetrahydro-furan-3,4-diol formate] |  |  |  | >130 | 2033.2 | 23.93
4 | CCc1noc(C2OC(n3cnc4c(NCC(c5ccccc5)c5ccccc5)nc(NC5CCNC5)nc43)C(O)C2O)n1 [Example 3, (2R,3R,4S,5S)-2-[6-(2,2-Diphenyl-ethylamino)-2-(pyrrolidin-3R-ylamino)-purin-9-yl]-5-(3-ethyl-[1,2,4]oxadiazol-5-yl)-tetrahydro-furan-3,4-diol formate] | >304 | 6719 | 4.63 |  |  | 
5 | CCc1noc(C2OC(n3cnc4c(NCCC(C)(C)C)nc(NCCc5cn(C)cn5)nc43)C(O)C2O)n1.O=CO.O=CO [Example 48, (2R,3R,4S,5S)-2-{6-(3,3-Dimethyl-butylamino)-2-[2-(1-methyl-1H-imidazol-4-yl)-ethylamino]-purin-9-yl}-5-(3-ethyl-[1,2,4]oxadiazol-5-yl)-tetrahydro-furan-3,4-diol diformate] |  |  |  | >165 | 16.84 | 4.40
6 | CCc1noc([C@H]2O[C@@H](n3cnc4c(NC(CC)CC)nc(N[C@H]5CC[C@H](N)CC5)nc43)[C@H](O)[C@@H]2O)n1.O=CO [Example 29, (2R,3R,4S,5S)-2-[2-(trans-4-Amino-cyclohexylamino)-6-(1-ethyl-propylamino)-purin-9-yl]-5-(3-ethyl-[1,2,4]oxadiazol-5-yl)-tetrahydro-furan-3,4-diol formate] | >117 | 989.5 | 8.92 |  |  | 
7 | CCc1noc([C@H]2O[C@@H](n3cnc4c(NCC(c5ccccc5)c5ccccc5)nc(NCCc5ccc(OC)c(OC)c5)nc43)[C@H](O)[C@@H]2O)n1.O=CO [Example 42, (2R,3R,4S,5S)-2-{2-(2-[3,4-Dimethoxy-phenyl]-ethylamino)-6-(2,2-diphenyl-ethylamino)-purin-9-yl}-5-(3-ethyl-[1,2,4]oxadiazol-5-yl)-tetrahydro-furan-3,4-diol formate] |  |  |  | >130 | >6064 | 32.77
8 | CCc1noc(C2OC(n3cnc4c(NCC(c5ccccc5)c5ccccc5)nc(NC5CCC(N)CC5)nc43)C(O)C2O)n1.O=CO.O=CO [Example 4, (2R,3R,4S,5S)-2-[2-(trans-4-Amino-cyclohexylamino)-6-(2,2-diphenyl-ethylamino)-purin-9-yl]-5-(3-ethyl-[1,2,4]oxadiazol-5-yl)-tetrahydro-furan-3,4-diol diformate] |  |  |  | >383 | >=3996 | 5.37
9 | CCc1noc([C@H]2O[C@@H](n3cnc4c(NC(CC)CC)nc(NCCN5CCOCC5)nc43)[C@H](O)[C@@H]2O)n1.O=CO [Example 19, (2S,3S,4R,5R)-2-(3-Ethyl-[1,2,4]oxadiazol-5-yl)-5-[6-(1-ethyl-propylamino)-2-(2-morpholin-4-yl-ethylamino)-purin-9-yl]-tetrahydro-furan-3,4-diol formate] | >694 | >5860 | 34.52 |  |  | 
10 | CCc1noc([C@H]2O[C@@H](n3cnc4c(NC(CC)CC)nc(NCCc5cn(C)cn5)nc43)[C@H](O)[C@@H]2O)n1.O=CO [Example 13, (2S,3S,4R,5R)-2-(3-Ethyl-[1,2,4]oxadiazol-5-yl)-5-(6-(1-ethyl-propylamino)-2-[2-(1-methyl-1H-imidazol-4-yl)-ethylamino]-purin-9-yl}tetrahydro-furan-3,4-diol formate] |  |  |  | >289 | >=4370 | 0.61
11 | CCc1noc(C2OC(n3cnc4c(NCC(c5ccccc5)c5ccccc5)nc(NCCN5CCCC5)nc43)C(O)C2O)n1.O=CO.O=CO (stereo not drawn) [Example 39] |  |  |  | >130 | 4505.4 | 30.21
12 | CCc1noc([C@H]2O[C@@H](n3cnc4c(NCC(c5ccccc5)c5ccccc5)nc(NCCO)nc43)[C@H](O)[C@@H]2O)n1.O=CO [Example 43, (2R,3R,4S,5S)-2-[6-(2,2-Diphenyl-ethylamino)-2-(2-hydroxy-ethylamino)-purin-9-yl]-5-(3-ethyl-[1,2,4]oxadiazol-5-yl)-tetrahydro-furan-3,4-diol formate] |  |  |  | >130 | 1367.6 | 6.85
13 | CCc1noc([C@H]2O[C@@H](n3cnc4c(NCC(c5ccccc5)c5ccccc5)nc(NCCc5cn(C)cn5)nc43)[C@H](O)[C@@H]2O)n1.O=C(O)C(F)F.O=C(O)C(F)F [Example 2] |  |  |  | >197 | 1823 | 0.64
14 | CCc1noc([C@H]2O[C@@H](n3cnc4c(NCC(c5ccccc5)c5ccccc5)nc(NCCNc5ccccn5)nc43)[C@H](O)[C@@H]2O)n1.O=CO.O=CO [Example 40] |  |  |  | >130 | >=3311.7 | 4.89
